A word on the IC50: it is the concentration that inhibits the measured activity by half.

Here are results for 20 compounds from patent publication US10793564B2, “Amino acid compounds and methods of use” (Pliant Therapeutics, Inc., priority 2018, dated 2020).

Sequence of recombinant human integrin αVβ6 (P06756 31-992): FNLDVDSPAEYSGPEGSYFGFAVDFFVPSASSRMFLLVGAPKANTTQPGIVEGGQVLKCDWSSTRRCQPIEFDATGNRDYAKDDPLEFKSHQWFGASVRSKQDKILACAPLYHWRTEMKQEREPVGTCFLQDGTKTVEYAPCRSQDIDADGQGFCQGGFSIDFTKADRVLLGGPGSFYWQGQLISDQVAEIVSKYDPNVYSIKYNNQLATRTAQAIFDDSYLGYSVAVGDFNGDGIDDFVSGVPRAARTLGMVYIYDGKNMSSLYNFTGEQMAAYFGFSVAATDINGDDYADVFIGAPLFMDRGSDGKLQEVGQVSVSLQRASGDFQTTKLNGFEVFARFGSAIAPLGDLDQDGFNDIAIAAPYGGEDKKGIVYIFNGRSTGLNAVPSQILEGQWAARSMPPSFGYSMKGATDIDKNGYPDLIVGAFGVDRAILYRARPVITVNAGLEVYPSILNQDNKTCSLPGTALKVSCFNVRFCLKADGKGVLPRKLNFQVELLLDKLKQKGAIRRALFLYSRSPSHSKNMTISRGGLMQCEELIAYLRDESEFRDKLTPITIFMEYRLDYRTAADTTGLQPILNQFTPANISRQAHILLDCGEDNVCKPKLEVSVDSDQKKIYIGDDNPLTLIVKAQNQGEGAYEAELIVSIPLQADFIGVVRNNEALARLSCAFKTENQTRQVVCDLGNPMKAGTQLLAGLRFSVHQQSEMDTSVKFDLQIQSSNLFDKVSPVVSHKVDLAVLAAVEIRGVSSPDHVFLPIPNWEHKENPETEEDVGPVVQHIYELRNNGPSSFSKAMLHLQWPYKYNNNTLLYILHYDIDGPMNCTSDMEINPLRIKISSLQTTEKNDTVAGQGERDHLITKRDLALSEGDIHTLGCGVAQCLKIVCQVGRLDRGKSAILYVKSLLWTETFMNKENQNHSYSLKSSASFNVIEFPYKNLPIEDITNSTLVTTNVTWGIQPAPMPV
Sequence of recombinant human integrin αVβ6 (P18564 22-707): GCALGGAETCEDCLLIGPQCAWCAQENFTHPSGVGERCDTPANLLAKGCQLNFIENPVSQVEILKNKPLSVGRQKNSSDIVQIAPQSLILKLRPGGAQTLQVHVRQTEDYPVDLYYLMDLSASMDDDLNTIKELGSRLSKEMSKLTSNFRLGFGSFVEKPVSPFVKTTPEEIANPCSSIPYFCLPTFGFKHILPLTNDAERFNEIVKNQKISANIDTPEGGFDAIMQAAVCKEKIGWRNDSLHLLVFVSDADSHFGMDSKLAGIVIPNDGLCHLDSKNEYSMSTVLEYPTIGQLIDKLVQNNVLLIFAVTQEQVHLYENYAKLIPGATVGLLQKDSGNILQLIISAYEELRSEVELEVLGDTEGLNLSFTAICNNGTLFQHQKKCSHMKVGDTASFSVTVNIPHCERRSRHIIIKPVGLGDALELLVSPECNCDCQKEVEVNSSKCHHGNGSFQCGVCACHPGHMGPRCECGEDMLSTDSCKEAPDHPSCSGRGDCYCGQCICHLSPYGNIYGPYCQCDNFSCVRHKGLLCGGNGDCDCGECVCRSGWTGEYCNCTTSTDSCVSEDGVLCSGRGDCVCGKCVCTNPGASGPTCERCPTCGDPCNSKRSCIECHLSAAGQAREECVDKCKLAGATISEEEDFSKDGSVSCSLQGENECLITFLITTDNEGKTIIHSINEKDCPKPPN

In the test the target is recombinant human integrin αVβ6 (Homo sapiens (Human), UniProt P06756+P18564). In words: Solid phase integrin αVβ6 binding assay. The settings on record: inhibition of recombinant TGFβ1 LAP binding to coated integrin, IC50 presented in four ranges, read-out: αvβ6 Inhibition IC50 (nM) - range. The gist of the method:
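Plates coated with recombinant human αVβ6 (2 μg/mL) and blocked; compounds competed with TGFβ1 LAP (0.67 μg/mL) in Mn2+ (0.5 mM)/BSA/sucrose TBS for 2 h at 25° C. Bound LAP detected by biotin anti-LAP and peroxidase-streptavidin; IC50 by four-parameter logistic fit.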
Regarding `O=C(O)[C@H](CCN(CCCCc1ccc2c(n1)NCCC2)CCOc1ccccc1)Nc1ncnc2ccccc12` [Compound 28, (S)-4-((2-phenoxyethyl) (4-(5,6,7,8-tetrahydro-1,8-naphthyridin-2-yl)butyl)amino)-2-(quinazolin-4-ylamino) butanoic Acid], the IC50 is under 50 nM.

Consider `O=C(O)[C@H](CCN(CCCF)CCCCc1ccc2c(n1)NCCC2)Nc1ncnc2ccccc12` [Compound 30, (S)-4-((3-fluoropropyl) (4-(5,6,7,8-tetrahydro-1,8-naphthyridin-2-yl)butyl)amino)-2-(quinazolin-4-ylamino) butanoic Acid], for which the IC50 was under 50 nM.

For the compound `CN(C)C(=O)CN(CCCCc1ccc2c(n1)NCCC2)CC[C@H](Nc1ncnc2c1cnn2C)C(=O)O` [Compound 140, (S)-4-((2-(dimethylamino)-2-oxoethyl) (4-(5,6,7,8-tetrahydro-1,8-naphthyridin-2-yl)butyl)amino)-2-((1-methyl-1H-pyrazolo[3,4-d]pyrimidin-4-yl)amino) butanoic Acid], the IC50 is under 50 nM.

For `Cc1ncccc1OCCN(CCCCc1ccc2c(n1)NCCC2)CC[C@H](Nc1ncnc2cccnc12)C(=O)O` [Compound 54, (S)-4-((2-((2-methylpyridin-3-yl)oxy)ethyl) (4-(5,6,7,8-tetrahydro-1,8-naphthyridin-2-yl)butyl)amino)-2-(pyrido[3,2-d]pyrimidin-4-ylamino) butanoic Acid], the IC50 was under 50 nM.

Consider `CN(C)C(=O)CN(CCCCc1ccc2c(n1)NCCC2)CC[C@H](Nc1ncnc2ccccc12)C(=O)O` [Compound 64, (S)-4-((2-(dimethylamino)-2-oxoethyl) (4-(5,6,7,8-tetrahydro-1,8-naphthyridin-2-yl)butyl)amino)-2-(quinazolin-4-ylamino) butanoic Acid], for which the IC50 is under 50 nM.

Consider `COc1ccc2c(N[C@@H](CCN(CCCF)CCCCc3ccc4c(n3)NCCC4)C(=O)O)ncnc2c1` [Compound 41, (S)-4-((3-fluoropropyl) (4-(5,6,7,8-tetrahydro-1,8-naphthyridin-2-yl)butyl)amino)-2-((7-methoxyquinazolin-4-yl)amino) butanoic Acid], for which the IC50 is under 50 nM.

As to `COCCN(CCCCc1ccc2c(n1)NCCC2)CC[C@H](Nc1cc(C(F)F)ncn1)C(=O)O` [Compound 23, (S)-2-((6-(difluoromethyl)pyrimidin-4-yl)amino)-4-((2-methoxyethyl) (4-(5,6,7,8-tetrahydro-1,8-naphthyridin-2-yl)butyl)amino) butanoic Acid], the IC50 is under 50 nM.

For the compound `N#Cc1cnc(N[C@@H](CCN(CCCCc2ccc3c(n2)NCCC3)CCOc2ccccc2)C(=O)O)nc1` [Compound 111, (S)-2-((5-cyanopyrimidin-2-yl)amino)-4-((2-phenoxyethyl) (4-(5,6,7,8-tetrahydro-1,8-naphthyridin-2-yl)butyl)amino) butanoic Acid], the IC50 is under 50 nM.

Regarding `O=C(O)[C@H](CCN(CCCCc1ccc2c(n1)NCCC2)CCOCC(F)(F)F)Nc1ncnc2ccccc12` [Compound 39, (S)-2-(quinazolin-4-ylamino)-4-((4-(5,6,7,8-tetrahydro-1,8-naphthyridin-2-yl)butyl) (2-(2,2,2-trifluoroethoxy)ethyl)amino) butanoic Acid], the half-maximal inhibitory concentration (IC50) is under 50 nM.

Take `COCCN(CCCCc1ccc2c(n1)NCCC2)CC[C@H](Nc1ncnc2c(F)cccc12)C(=O)O` [Compound 20, (S)-2-((8-fluoroquinazolin-4-yl)amino)-4-((2-methoxyethyl) (4-(5,6,7,8-tetrahydro-1,8-naphthyridin-2-yl)butyl)amino) butanoic Acid]: the IC50 is under 50 nM.

As for `O=C(O)[C@H](CCN(CCCCc1ccc2c(n1)NCCC2)C1CC1)Nc1ncnc2ccccc12` [Compound 6, (S)-4-(cyclopropyl(4-(5,6,7,8-tetrahydro-1,8-naphthyridin-2-yl)butyl)amino)-2-(quinazolin-4-ylamino) butanoic Acid], the IC50 was in the range of 50 to 250 nM.

On to `CC(=O)NCCN(CCCCc1ccc2c(n1)NCCC2)CC[C@H](Nc1ncnc2ccccc12)C(=O)O` [Compound 63, (S)-4-((2-acetamidoethyl) (4-(5,6,7,8-tetrahydro-1,8-naphthyridin-2-yl)butyl)amino)-2-(quinazolin-4-ylamino) butanoic Acid], for which the IC50 was under 50 nM.

Consider `O=C(O)[C@H](CCN(CCCCc1ccc2c(n1)NCCC2)CCC(F)F)Nc1ncnc2ccccc12` [Compound 29, (S)-4-((3,3-difluoropropyl) (4-(5,6,7,8-tetrahydro-1,8-naphthyridin-2-yl)butyl)amino)-2-(quinazolin-4-ylamino) butanoic Acid], for which the IC50 was under 50 nM.

Turning to `Cc1nc(N[C@@H](CCN(CCCCc2ccc3c(n2)NCCC3)CC2CC(F)(F)C2)C(=O)O)c2ccc(F)cc2n1` [Compound 33, (S)-4-(((3,3-difluorocyclobutyl)methyl) (4-(5,6,7,8-tetrahydro-1,8-naphthyridin-2-yl)butyl)amino)-2-((7-fluoro-2-methylquinazolin-4-yl)amino) butanoic Acid], the IC50 is under 50 nM.

For the compound `COCCN(CCCCc1ccc2c(n1)NCCC2)CC[C@H](Nc1ncnc2cccnc12)C(=O)O` [Compound 16, (S)-4-((2-methoxyethyl) (4-(5,6,7,8-tetrahydro-1,8-naphthyridin-2-yl)butyl)amino)-2-(pyrido[3,2-d]pyrimidin-4-ylamino) butanoic Acid], the IC50 is under 50 nM.

With `Cc1cc(C)n(CCN(CCCCc2ccc3c(n2)NCCC3)CC[C@H](Nc2ncnc3ccccc23)C(=O)O)n1` [Compound 45, (S)-4-((2-(3,5-dimethyl-1H-pyrazol-1-yl)ethyl) (4-(5,6,7,8-tetrahydro-1,8-naphthyridin-2-yl)butyl)amino)-2-(quinazolin-4-ylamino) butanoic Acid], the IC50 is under 50 nM.

Take `O=C(O)[C@H](CCN(CCCCc1ccc2c(n1)NCCC2)CCOc1ccc(F)cc1)Nc1ncc(C(F)(F)F)cn1` [Compound 139, (S)-4-((2-(4-fluorophenoxy)ethyl) (4-(5,6,7,8-tetrahydro-1,8-naphthyridin-2-yl)butyl)amino)-2-((5-(trifluoromethyl)pyrimidin-2-yl)amino) butanoic Acid]: the IC50 is under 50 nM.

With `CO[C@H](C)CN(CCCCc1ccc2c(n1)NCCC2)CC[C@H](Nc1nc(C)nc2ccccc12)C(=O)O` [Compound 66, (S)-4-(((R)-2-methoxypropyl) (4-(5,6,7,8-tetrahydro-1,8-naphthyridin-2-yl)butyl)amino)-2-((2-methylquinazolin-4-yl)amino) butanoic Acid], the IC50 is under 50 nM.

As to `Cc1nc(N[C@@H](CCN(CCCCc2ccc3c(n2)NCCC3)CCOc2cncc(F)c2)C(=O)O)c2ccc(F)cc2n1` [Compound 61, (S)-2-((7-fluoro-2-methylquinazolin-4-yl)amino)-4-((2-((5-fluoropyridin-3-yl)oxy)ethyl) (4-(5,6,7,8-tetrahydro-1,8-naphthyridin-2-yl)butyl)amino) butanoic Acid], the IC50 is under 50 nM.

Consider `CO[C@H](C)CN(CCCCc1ccc2c(n1)NCCC2)CC[C@H](Nc1ccnc(C(F)(F)F)n1)C(=O)O` [Compound 72, (S)-4-(((R)-2-methoxypropyl) (4-(5,6,7,8-tetrahydro-1,8-naphthyridin-2-yl)butyl)amino)-2-((2-(trifluoromethyl)pyrimidin-4-yl)amino) butanoic Acid], for which the IC50 is under 50 nM.
